{"source": "patent US7655620B2", "about": "“Use of one or more metal carriers to selectively kill mammalian cells” (Cancure Laboratories, LLC, priority 2005, dated 2010)", "key": {"cancer cells": {"test_system": "cancer cells", "test": "Killing of cancer cells by dithiocarbamates in the absence or presence of cadmium/zinc", "assay_type": "cell-based", "conditions": "for effectiveness in killing cancer cells in comparison to CCK3: 10-50 μM, absence or presence of 20 μM CdCl2/ZnCl2; for induction of cell death in the presence of cadmium or zinc: in vitro", "method": "A large number of dithiocarbamates can be synthesized that, similar to 3-aminopropylpiperidine-1-carbodithioate (CCK3), contain a free amino group. Several of these compounds were synthesized and tested (in the range of 10-50 μM concentration) on cancer cells in the absence or presence of 20 μM CdCl2/ZnCl2 in comparison to CCK3, as follows. […] Similarly, 1-{[(3-aminopropyl)thio]carbonothiol}pyrrolidine-2-carboxilic acid.HCl salt (for structure see FIG. 1) was ineffective both in the absence and presence of cadmium/zinc. The last two compounds may be ineffective because the presence of carboxyl group may interfere with proper binding of cadmium and zinc to the molecule. 3-Aminopropylpyrrolidine-1-carbodithionate. […] From this list, it appears that not every free amino group-containing dithiocarbamate can effectively kill cells in the presence of cadmium and zinc. In some of these cases the metal atom may bind to the dithiocarbamate molecule too strongly (covalently), not allowing dissociation of the metal from the molecule once inside the cell. After comparison of the above compounds with the effects of CCK3, further experiments were principally carried out with PDC and CCK3. These are representative compounds that can be the most effectively and most economically used when either no further modification of the molecule is required (PDC) or when modification with a targeting moiety is required (CCK3)."}, "[1]": {"test_system": "ZR-75-1 human breast cancer cells", "test": "Cell death judged from cell morphology (photographs)", "assay_type": "cell-based", "method": "ZR-75-1 cells were cultured in triplicate in 12-well plates in the medium described in Example 4. The cadmium/MT contained 5 atoms of cadmium and 1 atom of zinc, while the zinc/MT contained 5 atoms of zinc and 1 atom of cadmium per one MT molecule. ZR-75-1 cells were incubated in 10% serum-containing medium for 24 h in the absence (FIG. […] 6D), 240 μg/ml of zinc/MT (FIG. […] 6F).\n(§1) Cells were cultured in triplicate in 12-well plates as described in Example 4. The ratio of cadmium and zinc in cadmium/MT was 5:1 per one MT molecule. ZR-75-1 cells were incubated in 10% serum-containing medium for 8 hours in the absence (FIG. 7A) or presence of 20 μM CCK3 (FIG. 7B), 120 μg/ml of cadmium/MT (FIG. 7C), or 120 μg/ml of cadmium/MT+20 μM CCK3 (FIG. 7D)."}, "[2]": {"test_system": "various cancer and human normal 966 SK skin fibroblasts", "test": "MTT assay, statements over all cell lines of Example 6", "assay_type": "cell-based", "conditions": "CCK3 10 μM, cadmium/MT 60 μg/ml, alone or combined, 24 hour", "method": "(§2) Biochem. Biophys. Res. Commun. 213, 980-985]. […] Survival values obtained with untreated cells were considered 100%. […] Cancer Res. 47, 936-942].\nMCF-7 estrogen receptor positive human breast carcinoma cells and CaOV-3 human ovarian adenocarcinoma cells were grown in Dulbecco's modified Eagle's medium containing 4 mM L-glutamine, 1.5 g/L sodium bicarbonate, 4.5 g/L glucose, 1 mM sodium pyruvate and 10% fetal bovine serum. T47D human mammary gland ductal carcinoma cells and ZR-75-1 estrogen receptor positive human mammary gland ductal carcinoma cells were cultured in RPMI 1640 medium as indicated above. MB-468 and MB-231 human mammary gland adenocarcinoma cells were maintained in Leibovitz's L-15 medium as described above. AN3CA human endometrial adenocarcinoma and 966 SK normal human skin fibroblasts were cultured in Eagles's minimum essential medium supplemented with 0.1 mM non-essential amino acids and 10% fetal bovine serum. The preparation of MT (from Sigma-Aldrich, Inc.) used in this experiment contained about 4 ions of cadmium and only about 0.3 ions of zinc per MT molecule. […] The MTT assay was used for the determination of relative cell numbers. Data are illustrated in FIG. 4 as rates of growth inhibition (maximum inhibition=100%) in comparison to values without treatment. The error bars indicate S.D. (n=8). […]"}, "[3]": {"test_system": "MDA-MB-231 human mammary gland adenocarcinoma cells", "test": "Cell death judged from cell morphology (photographs)", "assay_type": "cell-based", "conditions": "5 μM CCK3, 10 μM cadmium, alone or in combination; 60 min; 10% serum-containing medium", "method": "(§3) MDA-MB-231 cells were cultured in Leibovitz's L-15 medium and 10% fetal bovine serum; the medium was changed 2 hours prior to treatments. For the treatments, cells were incubated in triplicate in 12-well plates. A typical experiment with these cells is illustrated in FIG. 3. The cells were untreated (FIG. 3A) or treated with 5 μM CCK3 (FIG. 3B), 10 μM cadmium (FIG. 3C), or 5 μM CCK3+10 μM cadmium (FIG. 3D) for 60 min in 10% serum-containing medium. […] In some experiments, cells were also incubated with [^3H]thymidine (1 μCi/ml) during the last 30 min of treatment to determine DNA synthesis. Cadmium and […] decreased DNA synthesis by 6 and 12%, while in combination they had 100% inhibitory effect.\n(§4) The cells were cultured as described in Example 4. The cadmium/MT contained 5 cadmium atoms per one MT molecule while zinc/MT contained 5 zinc atoms per one MT molecule. […] Thus, in this cell line cadmium/MT+PDC killed cells more rapidly and efficiently compared to the same amount of zinc/MT+PDC."}, "ZR-75-1 cells": {"test_system": "ZR-75-1 cells", "method": "Biochem. Biophys. Res. Commun. […] Survival values obtained with untreated cells were considered 100%.\nZR-75-1 cells were cultured in triplicate in 12-well plates in the medium described in Example 4. The cadmium/MT contained 5 atoms of cadmium and 1 atom of zinc, while the zinc/MT contained 5 atoms of zinc and 1 atom of cadmium per one MT molecule. ZR-75-1 cells were incubated in 10% serum-containing medium for 24 h in the absence (FIG. 6A) or presence of 15 μM CCK3 (FIG. 6B), 60 μg/ml of cadmium/MT (FIG. 6C), 60 μg/ml of cadmium/MT+15 μM CCK3 (FIG. 6D), 240 μg/ml of zinc/MT (FIG. 6E), or 240 μg/ml of zinc/MT+15 μM CCK3 (FIG. 6F).\nas §1"}, "T47D cells": {"test_system": "T47D cells", "test": "[3H]thymidine DNA synthesis", "assay_type": "cell-based, human", "conditions": "5 μM CCK3, 10 μM cadmium, alone or in combination; 4 hours; [3H]thymidine during last 30 min", "method": "as §2\nT47D Cells were cultured in RPMI 1640 cell culture medium (see Gibco Catalogue) supplied with 2 mM L-glutamine, 10 mM Hepes, 1 mM sodium pyruvate, 4.5 g/L glucose, 1.5 g/L sodium bicarbonate, 0.2 I.U. bovine insulin/ml, and 10% fetal bovine serum. The medium was changed for fresh 10% serum-containing medium 2 hours prior to treatments. For the treatments, the cells were incubated in triplicate in 12-well plates. The cells were untreated (FIG. 2A) or treated with 5 μM CCK3 alone (FIG. 2B), 10 μM cadmium alone (FIG. 2C), or 5 μM CCK3 and 10 μM cadmium in combination (FIG. 2D) for 4 hours in 10% serum-containing medium when the photographs were taken. […] Finally, cells were incubated with [^3H]thymidine (1 μCi/ml) during the last 30 min of treatment to determine DNA synthesis. Cadmium and CCK3 decreased DNA synthesis by 13 and 8% respectively, while in combination they had practically 100% inhibitory effect."}, "MCF-7 cells [4]": {"test_system": "MCF-7 cells", "test": "Cell death judged from cell morphology (photographs)", "assay_type": "cell-based, human", "conditions": "20 μM CCK3, 120 μg/ml cadmium/MT, alone or combined; 8 hours; 10% serum", "method": "(§5) The cells were cultured as described in Example 4."}, "[5]": {"test_system": "cancer cells (CaOV-3, T47D and PC-3)", "test": "MTT assay / killing, statements over several cancer cell lines (metal/MTLP-25)", "assay_type": "cell-based, human", "conditions": "20 μM CCK3, 100 μg/ml metal/MTLP-25, 24 hours; summary of Table 1", "method": "The concentration range for these cadmium/MTLP-25 effects in some embodiments is 10-600 μg/ml, while in other embodiments, the concentration range is 50-200 μg/ml. Therapeutically effective concentrations of metal/MTLP-25 and CCK3 or PDC exert maximal effects on tumors without causing significant toxicity.\nPC-3 human prostate adenocarcinoma cells were maintained and treated in Ham's F12K medium containing 7% fetal bovine serum. The CaOV-3 human ovarian adenocarcinoma cells were maintained and treated in Dulbecco's modified Eagle's medium containing 4 mM L-glutamine, 1.5 g/L sodium bicarbonate, 4.5 g/L glucose, 1 mM sodium pyruvate and 10% fetal bovine serum. T47D were maintained and treated in RPMI 1640 cell culture medium (see Gibco Catalogue) supplied with 2 mM L-glutamine, 10 mM Hepes, 1 mM sodium pyruvate, 4.5 g/L glucose, 1.5 g/L sodium bicarbonate, 0.2 I.U. bovine insulin/ml, and 10% fetal bovine serum. The cells were incubated in 96-well plates in the medium described above for 24 hours in the absence or presence of 20 μM CCK3 and/or 100 μg/ml of cadmium/MTLP-25 or 100 μg/ml of zinc/MTLP-25 as indicated in Table 1. After the treatment period, the MTT assay was used to determine the relative cell number of viable cells. Errors are expressed as S.D. (n=8 for each treatment)."}, "[6]": {"test_system": "T47D human mammary gland ductal carcinoma cells", "test": "Cell death judged from cell morphology (photographs)", "assay_type": "cell-based", "conditions": "5 μM CCK3, 10 μM cadmium, alone or in combination; 4 hours; 10% serum-containing medium"}, "MCF-7 cells [7]": {"test_system": "MCF-7 cells", "test": "Trypan blue exclusion assay", "assay_type": "cell-based, human", "conditions": "20 μM CCK3, 120 μg/ml cadmium/MT, alone or combined; 8 hours", "method": "as §2, §5"}, "MDA-MB-231 cells": {"test_system": "MDA-MB-231 cells", "test": "[3H]thymidine DNA synthesis", "assay_type": "cell-based, human", "conditions": "60 min treatment, 10 μM cadmium, alone or in combination; [3H]thymidine during last 30 min", "method": "as §2, §3, §4"}}, "note": "“Also recorded” adds a separate entry of the source.", "data": [{"molecule": "Cl.NCCCSC(=S)N1CCCC1C(=O)O", "note": "(stereo not shown) [1-{[(3-aminopropyl)thio]carbonothiol}pyrrolidine-2-carboxilic acid.HCl salt]", "values": [{"measurement": "effectiveness in killing cancer cells in comparison to CCK3", "setting": "cancer cells", "result": "ineffective"}]}, {"molecule": "NCCCSC(=S)N1CCCCC1C(=O)O", "note": "(stereo not shown) [1-{[(3-aminopropyl)thio]carbonothioyl}piperidine-2-carboxilic acid]", "values": [{"measurement": "effectiveness in killing cancer cells in comparison to CCK3", "setting": "cancer cells", "result": "not effective at all"}]}, {"molecule": "C[N+](C)(C)CCOC(=S)SCCCN.[Cl-]", "note": "[2({[(3-aminopropyl)thio]carbonothionyl}oxy)-N,N,N-trimethylethanolamine-chloride]", "values": [{"measurement": "effectiveness in killing cancer cells in comparison to CCK3", "setting": "cancer cells", "result": "less effective than CCK3"}]}, {"molecule": "Cl.NCCCSC(=S)N1CCCC1", "note": "[3-Aminopropylpyrrolidine-1-carbodithionate. HCl salt]", "values": [{"measurement": "effectiveness in killing cancer cells in comparison to CCK3", "setting": "cancer cells", "result": "significantly less effective than CCK3"}]}, {"molecule": "Cl.NCCCSC(=S)N1CCCCC1", "note": "[CCK3, 3-aminopropylpiperidine-1-carbodithioate.HCl salt]", "values": [{"measurement": "cell death indicated by cell morphology", "setting": "[1]; 20 μM CCK3, 120 μg/ml cadmium/MT, alone or combined, 8 hours, 10% serum", "result": "failed to significantly alter cell morphology"}, {"measurement": "cell death indicated by cell morphology (FIG. 6 legend)", "setting": "[1]; CCK3 10 μM, cadmium/MT 60 μg/ml, zinc/MT 240 μg/ml, alone or MT+CCK3, 24 hours", "result": "failed to significantly alter cell morphology"}, {"measurement": "cell viability (FIG. 4)", "setting": "[2]", "result": "significantly smaller than the combined effects"}, {"measurement": "cell death indicated by cell morphology (cell rounding)", "setting": "[3]", "result": "no effects on cell morphology"}, {"measurement": "cells killed (trypan blue exclusion assay)", "setting": "ZR-75-1 cells; 15 μM CCK3, 60 μg/ml cadmium/MT, 240 μg/ml zinc/MT, alone or MT+CCK3, 24 h", "result": "practically no effects"}, {"measurement": "cells with decreased viability / killed (trypan blue exclusion assay)", "setting": "ZR-75-1 cells; 20 μM CCK3, 120 μg/ml cadmium/MT, alone or combined, 8 hours", "result": 16, "unit": "%"}, {"measurement": "induction of cell death in the presence of cadmium or zinc", "setting": "cancer cells", "result": "retains its ability to carry metals inside the cells resulting in cell death; also recorded: killed the cells"}, {"measurement": "decrease of DNA synthesis", "setting": "T47D cells", "result": 8, "unit": "%"}, {"measurement": "cell death indicated by cell morphology", "setting": "MCF-7 cells [4]", "result": "failed to significantly alter cell morphology"}, {"measurement": "reduction of the viability of cancer cells", "setting": "[5]", "result": "no effects"}, {"measurement": "cell death indicated by cell morphology (cell rounding)", "setting": "[6]", "result": "no effects on cell morphology"}, {"measurement": "cells killed (trypan blue exclusion assay)", "setting": "MCF-7 cells [7]", "result": "practically no effects on viability"}]}, {"molecule": "S=C(S)N1CCCC1", "note": "[PDC, pyrrolidinecarbodithioic acid, reference compound]", "values": [{"measurement": "decrease of DNA synthesis", "setting": "MDA-MB-231 cells", "result": 12, "unit": "%"}]}, {"molecule": "CCN(CC)C(=S)S", "note": "[diethyldithocarbamate, reference compound]", "values": [{"measurement": "induction of cell death in the presence of cadmium or zinc", "setting": "cancer cells", "result": "as effective as CCK3"}]}, {"molecule": "cadmium", "values": [{"measurement": "cell death indicated by cell morphology (cell rounding)", "setting": "[3]", "result": "no effects on cell morphology"}, {"measurement": "decrease of DNA synthesis", "setting": "MDA-MB-231 cells", "result": 6, "unit": "%"}, {"measurement": "decrease of DNA synthesis", "setting": "T47D cells", "result": 13, "unit": "%"}, {"measurement": "cell death indicated by cell morphology (cell rounding)", "setting": "[6]", "result": "no effects on cell morphology"}]}]}
